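Protocol summary: plate cells (96-well), add compound at 5 concentrations, incubate 48 h, interpolate endpoints linearly. GI50: concentration for 50% inhibition of growth. Definition used: TGI = concentration required for complete inhibition of growth.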
How the values were obtained:
Experiment in all cases: inhibition of tumour cell growth, NCI panel, 48 h
786-0 renal = tested on: 786-0 renal
CAKI-1 renal = tested on: CAKI-1 renal
HCC-2998 colon = tested on: HCC-2998 colon
M14 melanoma = tested on: M14 melanoma
MCF7 breast = tested on: MCF7 breast
MDA-MB-435 = tested on: MDA-MB-435
NCI-H226 lung = tested on: NCI-H226 lung
NCI/ADR-RES ovarian = tested on: NCI/ADR-RES ovarian
RPMI-8226 leukemia = tested on: RPMI-8226 leukemia
SNB-75 CNS = tested on: SNB-75 CNS
DLD-1 colon = tested on: DLD-1 colon

| SMILES | TGI (786-0 renal) [µM] | TGI (CAKI-1 renal) [µM] | TGI (HCC-2998 colon) [µM] | TGI (M14 melanoma) [µM] | TGI (MCF7 breast) [µM] | TGI (MDA-MB-435) [µM] | TGI (NCI-H226 lung) [µM] | TGI (NCI/ADR-RES ovarian) [µM] | TGI (RPMI-8226 leukemia) [µM] | TGI (SNB-75 CNS) [µM] | GI50 (HCC-2998 colon) [µM] | GI50 (M14 melanoma) [µM] | GI50 (MCF7 breast) [µM] | GI50 (MDA-MB-435) [µM] | GI50 (NCI-H226 lung) [µM] | GI50 (NCI/ADR-RES ovarian) [µM] | GI50 (RPMI-8226 leukemia) [µM] | GI50 (SNB-75 CNS) [µM] | TGI (DLD-1 colon) [µM] |
| --- | --- | --- | --- | --- | --- | --- | --- | --- | --- | --- | --- | --- | --- | --- | --- | --- | --- | --- | --- |
| CCCCCCCNC(P(=O)(O)O)P(=O)(O)O | > 100 | > 100 | > 100 | > 100 | > 100 | > 100 | > 100 | > 100 | > 100 | 43.3 |  |  |  |  |  |  |  |  |  |
| Fc1ccc(-c2nn3c(-c4cc(C(F)(F)F)cc(C(F)(F)F)c4)nnc3s2)cc1 |  |  | > 50 | > 50 | > 50 | > 50 | > 50 | > 50 | > 50 | 2.36 | > 50 | > 50 | > 50 | > 50 | 1.49 | 2.95 | > 50 | 0.886 |  |
| C=C1C(=O)O[C@@H]2[C@H]1CCC(C)=C1C=CC(=O)[C@]12C |  | 33.2 | 27.8 |  |  |  | 43.4 |  | 49.7 | 34.4 |  |  |  |  |  |  |  |  | 32.8 |
| COC1=CC(=O)c2c(cc(COP(=O)(OCC3OC(n4cc(F)c(=O)[nH]c4=O)CC3O)N(C)CCCCCl)n2C)C1=O (configuration not stated) | > 69.2 |  |  | 12.8 | 1.84 | 5 | 47.1 | > 40.6 | > 19.8 |  |  |  |  |  |  |  |  |  |  |
| O=C(O)C1CCC(=O)N1S(=O)(=O)c1ccccc1 (configuration not stated) |  | > 100 | > 100 |  | > 100 |  | > 100 | > 100 | > 100 | > 100 |  |  |  |  |  |  |  |  | > 100 |
| CO/C(=C/C(=O)C(Cl)(Cl)Cl)CC/C(=C\C(=O)C(Cl)(Cl)Cl)OC | 60.4 | 72.2 |  | 88.3 | 79.8 | 53.4 |  | > 100 | 70.9 | > 100 |  |  |  |  |  |  |  |  |  |
| O=C(Nc1c(C(=O)NC2CCCCC2)[nH]c(=O)[nH]c1=O)c1ccc(Cl)cc1 |  | > 100 |  | > 100 |  |  | > 100 |  | > 100 | 85.1 |  |  |  |  |  |  |  |  | > 100 |
| c1ccc(N=c2nc(N3CCOCC3)ss2)cc1 | 30.1 | 34.5 | 45.1 | 27.9 |  |  | > 100 |  |  | 39 |  |  |  |  |  |  |  |  | 28.3 |
| NC1(C(=O)O)CCc2ccc(N(CCCl)CCCl)cc2C1 (configuration not stated) |  |  | > 100 |  | > 100 |  | > 100 | > 100 | > 100 | > 100 |  |  |  |  |  |  |  |  | > 100 |
| CC(=O)OCC1=C(C(=O)O)C(c2ccc3c(c2)OCO3)c2cc3c(cc2O1)OCO3 (configuration not stated) |  | > 100 |  | > 100 |  |  |  |  | > 100 | > 100 |  |  |  |  |  |  |  |  | > 100 |
| Cc1cc(C)c2c(c1)C1=NCCN1C2(O)c1ccc(Cl)cc1 (configuration not stated) | 29.6 | 31.5 |  | 28.4 | 34.3 | 32.5 |  | 30.2 | 33.2 | 25 |  |  |  |  |  |  |  |  |  |
| Cc1cc2c(C(C)C)c(O)c(O)c(C=NCCO)c2c(O)c1-c1c(C)cc2c(C(C)C)c(O)c(O)c(C=NCCO)c2c1O | 4.83 | 19.5 | 8.25 | 3.58 |  |  | 6.88 |  | 4.9 | 9.13 |  |  |  |  |  |  |  |  | 11.7 |
| CC(=O)O[C@H]1C=CC(=O)C(C)CC1C (some centres not stated) |  | > 100 | > 100 | > 100 |  |  | > 100 |  |  | > 100 |  |  |  |  |  |  |  |  | > 100 |
| Clc1ccc(CNc2nc(Cl)c3[nH]cnc3n2)cc1Cl | > 100 | 79.9 | 53.2 | 70.3 | 84.5 | > 100 | 78.9 | 69.6 |  | > 100 |  |  |  |  |  |  |  |  |  |
| CCOc1ccc(/C(C=O)=C(\Cl)c2ccc(OC)c(OC)c2)cc1 |  | > 100 |  | > 100 |  |  | > 100 |  | > 100 |  |  |  |  |  |  |  |  |  | > 100 |
| Cc1ccc(C2N=C(N)NC3=C2CCOc2c3ccc3ccccc23)cc1 (configuration not stated) | > 71.7 | 28.5 | 76.4 | > 55.9 | > 51.5 | > 23.4 | > 88.4 | > 60.5 | > 63.2 | > 78.6 |  |  |  |  | 28.1 |  |  |  |  |
| N=C(N)SCc1cc(Cl)cc(Cl)c1O | 32.2 | 33.3 | 31.9 | 42.1 | 60.1 | 38 | 43.1 | 89.3 | 47.5 |  |  |  |  |  |  |  |  |  |  |
| O=C(COc1ccc(OCC(=O)NNC2=NC(c3cc(F)c(Cl)cc3Cl)CS2)c(Cl)c1)NNC1=NC(c2cc(F)c(Cl)cc2Cl)CS1 (configuration not stated) | > 100 |  |  | > 100 | 34.6 | 44.6 | 46 | > 100 | > 100 |  |  |  |  |  |  |  |  |  |  |
| CC(=O)C=NCC(=O)O | > 100 | > 100 |  | > 100 | > 100 | > 100 | > 100 | > 100 | > 100 | > 100 |  |  |  |  |  |  |  |  |  |
| CCCC(N)C(=O)c1ccccc1 (configuration not stated) | > 100 | > 100 | > 100 | > 100 |  |  | > 100 |  | > 100 | > 100 |  |  |  |  |  |  |  |  | > 100 |
| c1ccc(-c2nnc(SCc3c[nH]c4ccccc34)n2-c2ccccc2)cc1 | > 100 | > 100 | > 100 | > 100 | > 100 | > 100 | > 100 | > 100 | > 100 | 57.6 |  |  |  |  |  |  |  |  |  |
| COc1c2c(cc3c1OCO3)C13C=CC(OC)CC1N(CC3)C2 (configuration not stated) | > 100 | > 100 | > 100 | > 100 | > 100 | > 100 | > 100 | > 100 | > 100 | > 100 |  |  |  |  |  |  |  |  |  |
| O=C(Nc1ccc(Sc2ccc(N=Nc3c(O)c(S(=O)(=O)O)cc4cc(S(=O)(=O)O)ccc34)cc2)cc1)c1ccc(N=Nc2c(O)ccc3c(S(=O)(=O)O)cc(S(=O)(=O)O)cc23)cc1 | > 100 | > 100 | > 100 | 66.2 |  |  | > 100 |  | 73.4 | > 100 |  |  |  |  |  |  |  |  | > 100 |
| Cc1cc(C)nc(SCC(=O)OC2CC(C)CCC2C(C)C)n1 (configuration not stated) | 42.6 | 48.6 |  | 37 | 50.7 | 58.3 |  | 50.7 | 41.3 | 65.8 |  |  |  |  |  |  |  |  |  |
| N#CC(Nc1cccc(C(F)(F)F)c1)c1ccccc1C(F)(F)F (configuration not stated) |  | 9.09 | 18.6 | 17.6 |  |  | 30.4 |  |  | 32.2 |  |  |  |  |  |  |  |  | 29.5 |

— PubChem BioAssay (NCI)
